The target of this experiment is T1, mutant G12C K-RAS (Homo sapiens, UniProt P01116, G12C).
T1 construct: made in house; host or cells: E. coli BL21
Kind of experiment: covalent adduct formation (CAF) with mutant G12C K-RAS. It counts as binding. Set-up: CAF: unit not given here. The conditions noted are these: for % CAF @ 10 μM,1 h: Table 6. As to the method: Embodiments disclosed herein are further illustrated by the following examples in Tables 1-4 and the Examples hereinbelow. The Tables indicate the compound number, structure, the observed mass spectral molecular weight peak, and covalent adduct formation (CAF) with a mutant G12C K-RAS after 60 minutes at a concentration of 10 micromolar.

The mark [1] stands for this setting: Table 2, Pyrimidone Core-Morpholine Substituted, after 60 minutes at 10 micromolar.

For the molecule `C=CC(=O)N1C[C@H](C)N(c2nc(=O)n3c4c(c(-c5cc(Cl)ccc5F)c(Cl)cc24)OC[C@@H]3CN2CCOCC2)C[C@H]1C` [Example 211, (3S)-7-((2S,5R)-4-acryloyl-2,5-dimethylpiperazin-1-yl)-9-chloro-10-(5-chloro-2-fluorophenyl)-3-(morpholinomethyl)-2,3-dihydro-5H-[1,4]oxazino[2,3,4-ij]quinazolin-5-one], the “% CAF @ 10 μM,1 h” value is 77.4%.

As to `C=CC(=O)N1C[C@H](C)N(c2nc(=O)n3c4c(c(-c5c(F)ccc6c5C(=O)NC6)ccc24)OCC3)C[C@H]1C` [Example 231, 7-((2S,5R)-4-acryloyl-2,5-dimethylpiperazin-1-yl)-10-(5-fluoro-3-oxoisoindolin-4-yl)-2,3-dihydro-5H-[1,4]oxazino[2,3,4-ij]quinazolin-5-one], the “% CAF @ 10 μM,1 h” value turned out to be 0%.

As for `C=CC(=O)N1C[C@H](C)N(c2nc(=O)n3c4c(c(-c5ccc(F)cc5F)c(Cl)cc24)OC[C@H]3CCCN2CC[C@H](OC)C2)C[C@H]1C` [Example 334, (3R)-7-((2S,5R)-4-acryloyl-2,5-dimethylpiperazin-1-yl)-9-chloro-10-(2,4-difluorophenyl)-3-(3-((S)-3-methoxypyrrolidin-1-yl)propyl)-2,3-dihydro-5H-[1,4]oxazino[2,3,4-ij]quinazolin-5-one], the “% CAF @ 10 μM,1 h” value is recorded as 84.6%.

Consider `C=CC(=O)N1C[C@H](C)N(c2nc(=O)n3c4c(c(-c5cccc6ccccc56)c(Cl)cc24)OC[C@H]3Cn2cccn2)C[C@H]1C` (atropisomer, axis not shown) [Example 306, (3R,10R)-3-((1H-pyrazol-1-yl)methyl)-7-((2S,5R)-4-acryloyl-2,5-dimethylpiperazin-1-yl)-9-chloro-10-(naphthalen-1-yl)-2,3-dihydro-5H-[1,4]oxazino[2,3,4-ij]quinazolin-5-one], for which the “% CAF @ 10 μM,1 h” value is recorded as 73.5%.

Consider `C=CC(=O)N1C[C@H](C)N(c2nc(=O)n3c4c(c(-c5ccc(F)cc5F)c(Cl)cc24)OC[C@H]3CCCN2CCN(C)CC2)C[C@H]1C` [Example 264, (3R)-7-((2S,5R)-4-acryloyl-2,5-dimethylpiperazin-1-yl)-9-chloro-10-(2,4-difluorophenyl)-3-(3-(4-methylpiperazin-1-yl)propyl)-2,3-dihydro-5H-[1,4]oxazino[2,3,4-ij]quinazolin-5-one], for which the “% CAF @ 10 μM,1 h” value came out at 97.4%.

As for `C=CC(=O)N1C[C@H](C)N(c2nc(=O)n3c4c(c(-c5c(O)cccc5F)c(Cl)cc24)OC[C@@H]3CO)C[C@H]1C` [Example 26, (3S)-7-((2S,5R)-4-acryloyl-2,5-dimethylpiperazin-1-yl)-9-chloro-10-(2-fluoro-6-hydroxyphenyl)-3-(hydroxymethyl)-2H-[1,4]oxazino[2,3,4-ij]quinazolin-5(3H)-one], the “% CAF (60 min)” value under setting [1] is given as 81.9%.

As to `C=CC(=O)N1C[C@H](C)N(c2nc(=O)n3c4c(c(-c5c(O)cccc5F)c(Cl)cc24)OC[C@@H]3CO)C[C@H]1C` [Example 27, (3S,10S)-7-((2S,5R)-4-acryloyl-2,5-dimethylpiperazin-1-yl)-9-chloro-10-(2-fluoro-6-hydroxyphenyl)-3-(hydroxymethyl)-2H-[1,4]oxazino[2,3,4-ij]quinazolin-5(3H)-one], the “% CAF (60 min)” value under setting [1] came to 85.5%.

Take `C=CC(=O)N1C[C@H](C)N(c2nc(=O)n3c4c(c(-c5cccc6ccccc56)c(Cl)cc24)OC[C@H]3CCCN2C[C@@H]3C[C@H]2CO3)C[C@H]1C` (atropisomer, axis not shown) [Example 322, (3R,10S)-3-(3-((1S,4S)-2-oxa-5-azabicyclo[2.2.1]heptan-5-yl)propyl)-7-((2S,5R)-4-acryloyl-2,5-dimethylpiperazin-1-yl)-9-chloro-10-(naphthalen-1-yl)-2,3-dihydro-5H-[1,4]oxazino[2,3,4-ij]quinazolin-5-one]: the “% CAF @ 10 μM,1 h” value is 78.5%.

As for `C=CC(=O)N1C[C@H](C)N(c2nc(=O)n3c4c(c(-c5ccc(F)cc5F)c(Cl)cc24)OC[C@H]3CCCn2ccnc2)C[C@H]1C` [Example 272, (3R)-3-(3-(1H-imidazol-1-yl)propyl)-7-((2S,5R)-4-acryloyl-2,5-dimethylpiperazin-1-yl)-9-chloro-10-(2,4-difluorophenyl)-2,3-dihydro-5H-[1,4]oxazino[2,3,4-ij]quinazolin-5-one], the “% CAF @ 10 μM,1 h” value is 89.4%.

For the molecule `C=CC(=O)N1CCN(c2cc(=O)n3c4c(c(-c5c(O)cccc5F)ccc24)CCC3)CC1` [Example 45, 1-(4-acryloylpiperazin-1-yl)-8-(2-fluoro-6-hydroxyphenyl)-6,7-dihydropyrido[3,2,1-ij]quinolin-3(5H)-one], under “Table 3, Pyridone Core-Morpholine Unsubstituted, after 60 minutes at 10 micromolar”, the CAF was 1.

With `C=CC(=O)N1C[C@H](C)N(c2c(C#N)c(=O)n3c4c(c(-c5c(O)cccc5F)c(Cl)cc24)OC[C@@H]3CN(C)C)C[C@H]1C` [Example 49, (3S)-7-((2S,5R)-4-acryloyl-2,5-dimethylpiperazin-1-yl)-9-chloro-3-((dimethylamino)methyl)-10-(2-fluoro-6-hydroxyphenyl)-5-oxo-3,5-dihydro-2H-[1,4]oxazino[2,3,4-ij]quinoline-6-carbonitrile], where the note is “Table 4, Pyridone Core-Morpholine Substituted, after 60 minutes at 10 micromolar”, the “% CAF (60 min)” value came out at 0%.

Turning to `C=CC(=O)N1C[C@H](C)N(c2nc(=O)n3c4c(c(-c5c(O)cccc5F)c(Cl)cc24)OC[C@H]3CN(C)CC(F)(F)F)C[C@H]1C` (atropisomer, axis not shown) [Example 242, (3R,10S)-7-((2S,5R)-4-acryloyl-2,5-dimethylpiperazin-1-yl)-9-chloro-10-(2-fluoro-6-hydroxyphenyl)-3-((methyl(2,2,2-trifluoroethyl)amino)methyl)-2H-[1,4]oxazino[2,3,4-ij]quinazolin-5(3H)-one], the “% CAF @ 10 μM,1 h” value amounted to 63.1%.

In the case of `C=CC(=O)N1C[C@H](C)N(c2nc(=O)n3c4c(c(-c5c(O)cccc5F)c(Cl)cc24)OC[C@@H]3Cn2cccn2)C[C@H]1C` (atropisomer, axis not shown) [Example 244, (3S,10R)-3-((1H-pyrazol-1-yl)methyl)-7-((2S,5R)-4-acryloyl-2,5-dimethylpiperazin-1-yl)-9-chloro-10-(2-fluoro-6-hydroxyphenyl)-2H-[1,4]oxazino[2,3,4-ij]quinazolin-5(3H)-one], the “% CAF @ 10 μM,1 h” value was 4.4%.

`C=CC(=O)N1C[C@H](C)N(c2nc(=O)n3c4c(c(-c5c(C)ccc6cnn(C)c56)ccc24)OCC3)C[C@H]1C` [Example 194, 7-((2S,5R)-4-acryloyl-2,5-dimethylpiperazin-1-yl)-10-(1,6-dimethyl-1H-indazol-7-yl)-2,3-dihydro-5H-[1,4]oxazino[2,3,4-ij]quinazolin-5-one]: the “% CAF @ 10 μM,1 h” value came to 2.5%.

As for `C=CC(=O)N1C[C@H](C)N(c2nc(=O)n3c4c(c(-c5cc(Cl)ccc5F)c(Cl)cc24)OC[C@@H]3CN2CCC(F)(F)C2)C[C@H]1C` [Example 214, (3S)-7-((2S,5R)-4-acryloyl 2,5-dimethylpiperazin-1-yl)-9-chloro-10-(5-chloro-2-fluorophenyl)-3-((3,3-difluoropyrrolidin-1-yl)methyl)-2,3-dihydro-5H [1,4]oxazino[2,3,4-ij]quinazolin-5-one], the “% CAF @ 10 μM,1 h” value was 60.9%.

As to `C=CC(=O)N1C[C@H](C)N(c2nc(=O)n3c4c(c(-c5ccc(F)cc5F)c(Cl)cc24)OC[C@@H]3CCCN2CCN(C)CC2)C[C@H]1C` [Example 259, (3S)-7-((2S,5R)-4-acryloyl-2,5-dimethylpiperazin-1-yl)-9-chloro-10-(2,4-difluorophenyl)-3-(3-(4-methylpiperazin-1-yl)propyl)-2,3-dihydro-5H-[1,4]oxazino[2,3,4-ij]quinazolin-5-one], the “% CAF @ 10 μM,1 h” value worked out at 90.2%.

With `C=CC(=O)N1CCN(c2nc(=O)n3c4c(c(-c5c(C)ccc6[nH]ncc56)c(Cl)cc24)OCC3)CC1` [Example 8, (S)-7-(4-acryloylpiperazin-1-yl)-9-chloro-10-(5-methyl-1H-indazol-4-yl)-2H-[1,4]oxazino[2,3,4-ij]quinazolin-5(3H)-one], for the setting “Table 1, Pyrimidone Core-Morpholine Unsubstituted, after 60 minutes at 10 micromolar”, the “% CAF (60 min)” value came to 0%.

Regarding `C=CC(=O)N1C[C@H](C)N(c2nc(=O)n3c4c(c(-c5ccc(F)cc5F)c(Cl)cc24)OC[C@@H]3CCCN2[C@@H]3CC[C@H]2COC3)C[C@H]1C` [Example 252, (3S)-3-(3-((1R,5S)-3-oxa-8-azabicyclo[3.2.1]octan-8-yl)propyl)-7-((2S,5R)-4-acryloyl-2,5-dimethylpiperazin-1-yl)-9-chloro-10-(2,4-difluorophenyl)-2H-[1,4]oxazino[2,3,4-ij]quinazolin-5(3H)-one], the “% CAF @ 10 μM,1 h” value is 60.5%.

With `C=CC(=O)N1C[C@H](C)N(c2nc(=O)n3c4c(c(-c5ccccc5C(F)(F)F)c(Cl)cc24)OCC3)C[C@H]1C` [Example 197, 7-((2S,5R)-4-acryloyl-2,5-dimethylpiperazin-1-yl)-9-chloro-10-(2-(trifluoromethyl)phenyl)-2,3-dihydro-5H-[1,4]oxazino[2,3,4-ij]quinazolin-5-one], the “% CAF @ 10 μM,1 h” value was determined as 0%.

Regarding `C=CC(=O)N1C[C@H](C)N(c2nc(=O)n3c4c(c(-c5ccc(F)cc5F)c(Cl)cc24)OC[C@H]3CCCN2CCOCC2)C[C@H]1C` [Example 218, (3R)-7-((2S,5R)-4-acryloyl-2,5-dimethylpiperazin-1-yl)-9-chloro-10-(2,4-difluorophenyl)-3-(3-morpholinopropyl)-2,3-dihydro-5H-[1,4]oxazino[2,3,4-ij]quinazolin-5-one], the “% CAF @ 10 μM,1 h” value is 95.6%.

For the molecule `C=CC(=O)N1C[C@H](C)N(c2nc(=O)n3c4c(c(-c5ccc(F)cc5F)c(Cl)cc24)OC[C@@H]3CCN2CCOCC2)C[C@H]1C` [Example 217, (3S)-7-((2S,5R)-4-acryloyl-2,5-dimethylpiperazin-1-yl)-9-chloro-10-(2,4-difluorophenyl)-3-(2-morpholinoethyl)-2,3-dihydro-5H-[1,4]oxazino[2,3,4-ij]quinazolin-5-one], the “% CAF @ 10 μM,1 h” value amounted to 83.4%.
